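Tested at 5 concentrations; 48 h exposure; 96-well plates; endpoints linearly interpolated, else capped at highest concentration. At the TGI there is no net growth.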

The source of these data is PubChem BioAssay (NCI).

Among the test systems are NCI/ADR-RES ovarian; U251 CNS; T-47D breast; SF-268 CNS; NCI-H522 lung; MCF7 breast; OVCAR-5 ovarian; M14 melanoma; UACC-62 melanoma; SN12C renal; SR leukemia; SNB-19 CNS; DU-145 prostate; ACHN renal; SF-539 CNS; SW-620 colon; NCI-H226 lung; UO-31 renal; NCI-H460 lung.
Holding throughout (assay): NCI tumour cell line growth inhibition, 48 h

As to `c1ccc2c(c1)ncn2C1CCCCO1` (configuration not stated), the TGI with NCI/ADR-RES ovarian, with U251 CNS, in the experiment with T-47D breast, in the experiment on SF-268 CNS, with NCI-H522 lung and in the experiment with MCF7 breast was more than 100 µM throughout. The TGI with OVCAR-5 ovarian, in the experiment on M14 melanoma, in the experiment with UACC-62 melanoma, with SN12C renal, with SR leukemia and in the experiment on SNB-19 CNS was more than 100 µM throughout. Also, the TGI in the experiment on DU-145 prostate, in the experiment on ACHN renal, in the experiment with SF-539 CNS, in the experiment on SW-620 colon, in the experiment with NCI-H226 lung and in the experiment with UO-31 renal was more than 100 µM in each case.
Take `CCOC(=O)C(C(=S)Nc1ccccc1)c1nn2c(=O)cc(C)nc2s1` (configuration not stated): the TGI with NCI/ADR-RES ovarian is 67.2 µM; in the experiment with U251 CNS it was 83 µM; with T-47D breast, 85.2 µM; with SF-268 CNS it was more than 100 µM; with NCI-H522 lung, 53.9 µM; in the experiment on MCF7 breast it was 37.8 µM. Further, the TGI in the experiment on OVCAR-5 ovarian is more than 100 µM; in the experiment on M14 melanoma, 57.1 µM; with UACC-62 melanoma, 66.1 µM; in the experiment on SN12C renal, more than 100 µM; in the experiment on SR leukemia it was 80.9 µM; with SNB-19 CNS it was more than 100 µM. Besides, the TGI in the experiment with DU-145 prostate is more than 100 µM; with ACHN renal, 66.6 µM; with SF-539 CNS, 86.6 µM; with SW-620 colon it was more than 100 µM; with NCI-H460 lung, 81.1 µM; in the experiment with NCI-H226 lung, 70 µM. Moreover, the TGI in the experiment on UO-31 renal amounted to 70 µM.
`O=C1CCCC/C1=C\c1ccc(Br)cc1`: the TGI with NCI/ADR-RES ovarian was 12.2 µM; in the experiment with U251 CNS it was 9.79 µM; in the experiment on T-47D breast, 51 µM; with SF-268 CNS, 36.3 µM; in the experiment with NCI-H522 lung it was 31.1 µM; in the experiment with MCF7 breast, 7.4 µM. Further, the TGI in the experiment with M14 melanoma is 26.1 µM; in the experiment on UACC-62 melanoma, 19.6 µM; with SN12C renal it was 41.5 µM; in the experiment with SR leukemia, more than 100 µM; with SNB-19 CNS it was 13.2 µM; in the experiment with DU-145 prostate, more than 100 µM. In addition, the TGI with ACHN renal was 9.18 µM; in the experiment with SF-539 CNS it was 37.1 µM; in the experiment with SW-620 colon it was more than 100 µM; with NCI-H460 lung, 98.2 µM; with UO-31 renal it was 29.6 µM.
Take `CCOC(=O)C(Cl)(NC(=O)c1c(F)c(F)c(F)c(F)c1F)C(F)(F)F` (configuration not stated): the TGI in the experiment with NCI/ADR-RES ovarian is more than 100 µM; in the experiment with U251 CNS, more than 100 µM; in the experiment on T-47D breast, more than 100 µM; in the experiment on SF-268 CNS it was more than 100 µM; with NCI-H522 lung it was 54.7 µM; in the experiment with MCF7 breast, more than 100 µM. Moreover, the TGI with OVCAR-5 ovarian, in the experiment on M14 melanoma, in the experiment on UACC-62 melanoma, in the experiment on SN12C renal, with SR leukemia and in the experiment with SNB-19 CNS was more than 100 µM each time. Further, the TGI in the experiment with DU-145 prostate, with ACHN renal, in the experiment on SF-539 CNS, with SW-620 colon, with NCI-H226 lung and in the experiment on UO-31 renal was more than 100 µM throughout.
For `CCCCCCCCCCCCCC[S+](C)C`, the TGI is more than 10 µM in the experiment on NCI/ADR-RES ovarian; 2.28 µM in the experiment on U251 CNS; more than 10 µM in the experiment with T-47D breast; 3.99 µM in the experiment with SF-268 CNS; 4.33 µM in the experiment on NCI-H522 lung; 4.67 µM with MCF7 breast. Further, the TGI in the experiment on OVCAR-5 ovarian is more than 10 µM; in the experiment on M14 melanoma, 3.57 µM; with UACC-62 melanoma, 6.78 µM; with SN12C renal it was 3.24 µM; with SR leukemia, 2.35 µM; in the experiment with SNB-19 CNS it was 2.84 µM. Further, the TGI in the experiment on DU-145 prostate is more than 10 µM; in the experiment on ACHN renal, more than 10 µM; with SF-539 CNS it was 2.79 µM; with SW-620 colon, more than 10 µM; with NCI-H460 lung, 6.78 µM; in the experiment with NCI-H226 lung it was 5.13 µM. In the experiment with UO-31 renal, this compound gave a TGI of more than 10 µM.
For `CCOc1ccc(/C=N/[N+](C)(C)C)cc1OCC`, the TGI in the experiment on NCI/ADR-RES ovarian, with U251 CNS, in the experiment on T-47D breast, with SF-268 CNS, in the experiment on NCI-H522 lung and with MCF7 breast was more than 10 µM each time. Besides, the TGI with OVCAR-5 ovarian, in the experiment with M14 melanoma, in the experiment with UACC-62 melanoma, in the experiment on SN12C renal, with SR leukemia and in the experiment with SNB-19 CNS was more than 10 µM throughout. Also, the TGI with DU-145 prostate, in the experiment with ACHN renal, in the experiment on SF-539 CNS and in the experiment with SW-620 colon was more than 10 µM each time.
